Common to all, as to type: in vivo
One series concerns APP/PS1 mice. As to the kind of experiment: Resident-Intruder (RI) test in Alzheimer's disease aggression mouse model. Particulars: for number (frequency) of attacks on the intruder mouse vs vehicle-treated APP/PS1 mice: KNX100 phosphate salt 2.5, 5 or 10 mg/kg freebase equivalent IP 15 min prior, risperidone 0.05 mg/kg IP 30 min prior, 5-minute session. The source says:
Male APP/PS1 and WT mice (˜3 months of age) were used to assess the effect of KNX100 on aggression in a mouse model of Alzheimer's Disease.
APP/PS1 are double transgenic mice expressing a chimeric mouse/human amyloid precursor protein (APP) and presenilin (PS1).
Male C57BL/6J mice were purchased from Jackson Laboratory at 7-8 weeks of age and were used as the intruders in this study. The APP/PS1 mice and wild-type control mice were single-housed and C57BL/6J mice were group-housed (4 per cage) in a light-controlled environment (12/12 light/dark cycle) with access to food and water ad libitum. Tests were performed during the animal's light cycle.
The test compound, KNX100 was provided in its phosphate salt form. Doses of 2.5, 5, and 10 mg/kg freebase equivalent were dissolved in saline and injected IP, at a dose volume of 10 ml/kg, 15 minutes prior to the test.
Briefly, all mice were acclimated to red-light conditions for 60 minutes prior to testing. During the RI test, an unfamiliar intruder C57BL/6J mouse was placed directly into the home cage of the APP/PS1 resident mouse for 300 seconds. During the 5-minute session, the latency time to attack (attack was defined at a bite), and the total number (frequency) of attacks, were recorded manually by an experimenter blinded to the treatment groups. Immediately after testing, mice were separated, and the intruder mouse was placed back into his home cage. All mice that were wounded were treated according to IACUC guidelines.
One week after the pre-screen RI session, AD resident mice were administered vehicle, test compound, or risperidone. The RI test session was performed as described above following the appropriate pretreatment time.
Body weights were recorded at each time point as specified above. For aggression, the latency to attack and the total number of attacks were recorded.
Data were analyzed by analysis of variance (ANOVA) followed by post-hoc comparisons when appropriate. An effect was considered significant if p<0.05. Data are presented as the mean±standard error of the mean (SEM).

Series [1] has as its system single housed hyper-aggressive male Swiss mice. As to the kind of experiment: Isolation-induced aggression model, two mouse social interaction test. The note with it: for increased time spent fighting in single housed mice: 10-minute test. The source says:
This model has been chosen as it is considered to have excellent predictive validity toward human aggression and face validity for modelling offensive impulsive aggression in human aggression and it leads specifically to alterations in aggressive behaviour without confounding changes in other behaviours.
Eighty male Swiss mice (ARC, Perth, Australia) aged 6-7 weeks upon arrival were used for objectives (1) and (3) in this study, 30 mice of the same age and strain were used for objective (2). Subjects were housed four per cage in a temperature-controlled colony room (22° C.±1° C.) under standard laboratory conditions (12-hour light/dark cycle; light phase 0700-1900 hours) upon arrival. Mice were housed in standard IVC cages. Mice had ad libitum access to food and water in their home cages. All experiments were performed during the light phase. All experimental procedures were approved by University of Sydney Animal Ethics Committee.
After allowing 1 week for acclimatisation, n=64 mice were rendered hyper-aggressive by moving them into single housing, whereas n=16 animals were housed in groups of four. During this time, all mice were weighed at least once per week. One week prior to the commencement of testing mice were given habituation injections with saline (0.9%, 10 mL/kg) to reduce the potential confounding stress and anxiety from injections during testing.
Testing commenced from 6 weeks post-isolation. All experiments were conducted in testing arenas constructed from acrylic, with matte blue internal walls and floor (400 mm×400 mm×400 mm). The lighting at the centre of the arenas during testing was <10 lux. Prior to each test, one mouse in each pair was marked on its back with a non-toxic green marker, this allowed the automated behavioural tracking software to distinguish between the two mice (see below). On test days, weight and condition matched pairs of unfamiliar mice were administered their drug treatment(s) as described below and were then placed into the testing arena together for a 10 min test session (Examples 2 and 4) or a 5 minute test session (Example 3).
Drugs were administered either via intraperitoneal (i.p.) injection (injection volume 10 ml/kg) or administered orally (as indicated). The testing arenas were cleaned between sessions with ethanol (80%) and F10 disinfectant to eliminate residual odours.
KNX100 2HCL (Wuxi Apptech, Hong Kong, China) was dissolved in saline (0.9%).
A 5 group between-subjects design was utilised. 15 min prior to testing, group-housed mice received vehicle treatment (VEHg) and single housed mice received one of four different doses of KNX100 (0 aka VEHs, 2.5, 5 or 10 mg/kg). The sample size in each group was as follows: group housed (n=12); singled housed administered KNX100 dose 0 (n=14), […] (n=16), […] (n=18), and 10 (n=16) mg/kg, for i.p. administration.
For oral dosing, mice were similarly grouped, and 20 mg/kg KNX100 in saline or vehicle (saline) were administered by oral gavage with n=10 mice per group.
A 4 group between-subjects design was utilised.
The behaviours of interest were: (1) time (in seconds) spent fighting; (2) time (in seconds) spent huddling (defined as the mice being in close physical contact with each other while stationary); (3) time (in seconds) spent grooming themselves; and (4) distance travelled (in mm) by each mouse during the experimental session.
Experimental sessions were recorded with an overhead camera using CaptureStar (Version 1.00, CleverSys, Virginia, USA). The behaviours detailed above were automatically quantified from the videos using the behavioural tracking software TopScan, SocialScan and AggressionScan (CleverSys, Virginia, USA). Data were analysed using SPSS (Version 24.0, IBM, USA). Data were analysed with a one-way ANOVA and planned contrasts. Significance was set at p≤0.05.
This study used the same model and testing procedure for the two-mouse social interaction test as described in Example 1, and using a phosphate salt form of KNX100.

A further series deals with 6-OHDA lesion mice. The series can be described thus: Social interaction test in neonatal 6-OHDA lesion mouse model of ADHD. Particulars: KNX100 phosphate 1.845-7.38 mg/kg freebase equivalent i.p. or 3.75-15 mg/kg p.o. The source says: Increased aggression is commonly observed in patients with ADHD. This increased aggression is also observed in several animal models of ADHD. One such model is the neonatal 6-hydroxydopamine (6-OHDA) lesion mouse model.
Briefly, intracerebroventricular infusion of 6-OHDA into brains of mice around postnatal day 5 results in a biological ADHD phenotype (e.g. dopamine depletion) and a behavioural phenotype (e.g. hyperactivity, impaired attention, impulsivity, aggression, and learning and memory deficits) in the majority of mice from postweaning onwards.
Five primary experimental conditions of interest are investigated: • Sham lesion mice treated with vehicle • 6-OHDA lesion mice treated with vehicle • 6-OHDA lesion mice treated with 1.845 mg/kg freebase equivalent KNX100 phosphate i.p. or 3.75 mg/kg p.o. • 6-OHDA lesion mice treated with 3.69 mg/kg freebase equivalent KNX100 phosphate i.p. or 7.5 mg/kg p.o. • 6-OHDA lesion mice treated with 7.38 mg/kg freebase equivalent KNX100 phosphate i.p. or 15 mg/kg p.o.
During adolescence, mice undergo a social interaction test to test the effects of KNX100 on increased aggression the ADHD model mice (6-OHDA lesion mice) compared to the control mice (sham lesion mice). […] The behaviours of the control or ADHD model mouse are assessed and include the total time spent fighting, the total number of fights, and the latency to the first fight.

[2] abbreviates: Example 4: 0.1 mg/kg risperidone (30 min prior) or 10 mg/kg KNX100 dihydrochloride salt (15 min prior), 10 min test.
[3] abbreviates: Example 4: 0.1 mg/kg risperidone or 10 mg/kg KNX100 dihydrochloride salt.
[4] abbreviates: Example 4: 10 mg/kg KNX100 vs 0.1 mg/kg risperidone.
Where [5] appears, read: KNX100 dihydrochloride salt 20 mg/kg p.o. 30 min prior, 5 min test.
[6] abbreviates: KNX100 dihydrochloride salt 2.5, 5 or 10 mg/kg i.p., single housed mice, linear trend for dose.
Where [7] appears, read: acute KNX100 phosphate salt 15 mg/kg freebase equivalent p.o.
Setting [8] is: subchronic KNX100 phosphate salt 15 mg/kg freebase equivalent p.o. once daily 7 days.

The structures appear in SMILES notation. Entries after “also recorded” stand apart in the source; their conditions may differ.

As for `Cn1ncc2c1Nc1ccccc1NC2` [KNX100], the “latency to attack the intruder mouse vs vehicle-treated APP/PS1 mice” value with APP/PS1 mice (KNX100 phosphate salt 10 mg/kg freebase equivalent IP) is “showed a trend to increasing the latency to attack; also recorded: tended to increase the latency to attack intruders”. In the series with APP/PS1 mice, the “number (frequency) of attacks on the intruder mouse vs vehicle-treated APP/PS1 mice” value is reported as “decreased the number of attacks; also recorded: robustly reduced the number of aggressive attacks”. In addition, the “time spent fighting vs vehicle treated single housed mice” value in series [1] (setting [2]) was “spent less time fighting; also recorded: significantly inhibited fighting”. Moreover, in series [1] (setting [3]), the “distance travelled vs vehicle treated single housed mice” value was “travelled significantly less distance; also recorded: significantly reduced distance travelled”, the “time spent fighting vs vehicle treated group housed mice” value is listed as “spent less time fighting” and the “time spent huddling vs vehicle treated single housed mice” value was “spent significantly more time huddling; also recorded: increased huddling”. In series [1] (Example 4: 0.1 mg/kg risperidone vs 10 mg/kg KNX100), the “distance travelled / locomotor activity, risperidone compared with KNX100” value is “significantly less suppression of locomotor activity”. Also, the “time spent grooming vs vehicle treated group housed mice” value in series [1] (Example 4: 10 mg/kg KNX100 dihydrochloride salt) is listed as “did not differ significantly from vehicle treated group housed mice in time spent grooming”. In series [1] (setting [4]), the “time spent fighting / inhibition of aggression, KNX100 compared with risperidone” value is recorded as “no significant difference in time spent fighting; also recorded: at least equivalent inhibition of aggression to risperidone”; the “time spent grooming, KNX100 compared with risperidone” value was “no significant different in time spent grooming”; the “time spent huddling, KNX100 compared with risperidone” value was “no significant difference in time spent huddling”. Moreover, in series [1] (setting [5]), the “time spent fighting vs vehicle treated group housed mice” value was “did not differ significantly in time spent fighting compared to vehicle treated group housed mice; also recorded: did not differ significantly in time spent fighting relative to the group housed mice” and the “time spent fighting vs vehicle treated single housed mice” value is listed as “spent significantly less time fighting than the single housed vehicle treated mice”. Besides, in series [1] (KNX100 dihydrochloride salt 2.5, 5, 10 mg/kg i.p., vs vehicle treated group housed mice), the “distance travelled relative to the group housed mice” value is on record as “none of the doses of KNX100 resulted in a significant difference in distance travelled”. Moreover, the time spent fighting result in series [1] (KNX100 dihydrochloride salt 2.5, 5 or 10 mg/kg i.p. 15 min prior, single housed mice, linear trend for dose, 10 min test) is “dose dependently inhibited induced aggression; also recorded: dose dependently inhibited fighting”. In addition, in series [1] (setting [6]), the distance travelled entry was “dose dependently decreased distance travelled; also recorded: dose dependently inhibited”, the time spent huddling entry is reported as “dose dependently increased time spent in this form of close physical contact; also recorded: dose dependently increased huddling” and the time spent self-grooming result is given as “dose dependently increased time spent self-grooming”. Moreover, in series [1] (KNX100 phosphate salt 15 mg/kg freebase equivalent p.o.), the “efficacy of subchronic compared with acute KNX100 (duration spent fighting, number of fights, latency to first fight)” value was “no significant difference in efficacy; also recorded: maintains full efficacy at reducing aggressive behaviour after repeated dosing; also recorded: equally efficacious”. For the same compound, in series [1] (setting [7]), the “greater number of fights in single housed mice” value is “prevented” and the “reduced latency to first fight in single housed mice” value was “prevented”. Further, in series [1] (acute KNX100 phosphate salt 15 mg/kg freebase equivalent p.o. on day 7, 30 min prior), the “increased time spent fighting in single housed mice” value is listed as “prevented the increased time spent fighting”. For the same compound, in series [1] (setting [8]), the “greater number of fights in single housed mice” value is recorded as “prevented”, the “reduced latency to first fight in single housed mice” value is “prevented” and the “increased time spent fighting in single housed mice” value is “prevented the increased time spent fighting”. Also, the “total time spent fighting, total number of fights, latency to the first fight” value in the series on 6-OHDA lesion mice was “is shown to inhibit fighting incidents, duration of fighting, and latency to first attack”.

For `Cc1nc2n(c(=O)c1CCN1CCC(c3noc4cc(F)ccc34)CC1)CCCC2` [risperidone, reference compound], in the series with APP/PS1 mice, the “number (frequency) of attacks on the intruder mouse vs vehicle-treated APP/PS1 mice” value is recorded as “decreased the number of attacks”. Further, the “time spent fighting vs vehicle treated single housed mice” value in series [1] (setting [2]) is listed as “spent less time fighting; also recorded: significantly inhibited fighting”. For the same compound, in series [1] (setting [3]), the “time spent fighting vs vehicle treated group housed mice” value is “spent less time fighting” and the “time spent huddling vs vehicle treated single housed mice” value is “spent significantly more time huddling; also recorded: increased huddling”. The “time spent grooming vs vehicle treated single housed mice” value in series [1] (Example 4: 0.1 mg/kg risperidone, 0.1 mg/kg) was “spent significantly more time grooming; also recorded: significantly increased time spent grooming”.

Values taken from patent US20240139206A1, “METHODS OF TREATMENT” (Kinoxis Therapeutics Pty Ltd, priority 2021, published 2024).
